In PubChem BioAssay AID1963825 (Molecular Pharmacology Branch, DTP, NCI, 2024):

Assay: Anticancer human tumor 997537-175-T-J1-PDC patient-derived colon adenocarcinoma cell line growth inhibition [POLQ]
Conditions: 997537-175-T-J1-PDC complex spheroid viability, combination with POLQ inhibitors; for IC50: curve of first compound; for viability, T/C: stronger effect = lower value
How it was run: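 PDC + HUVEC + MSC complex spheroids; POLQ inhibitors ± partner drugs; top conc. at/near clinical Cmax, else 10 microM (SN-38 1 microM), half-log dilutions; 37 degrees C, 5% CO2.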

[1] = second compound 0.0316 µM, first compound 0.0316 µM
[2] = second compound 0.0316 µM, first compound 0.1 µM
[3] = second compound 0.1 µM, first compound 0.0316 µM
[4] = second compound 0.1 µM, first compound 0.1 µM
[5] = second compound 0.316 µM, first compound 0.0316 µM
[6] = second compound 0.316 µM, first compound 0.1 µM
[7] = second compound 1 µM, first compound 0.0316 µM
[8] = second compound 1 µM, first compound 0.1 µM
[9] = second compound 3.16 µM, first compound 0.0316 µM
[10] = second compound 3.16 µM, first compound 0.1 µM
[11] = second compound 10 µM, first compound 0.0316 µM
[12] = second compound 10 µM, first compound 0.1 µM
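Also: luminescence signal used as a surrogate for viable cells; spheroids exposed to drugs for seven days before readout.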

With `O=C(Nc1ccc(O)c(NS(=O)(=O)c2ccc(F)cc2)c1)c1ccc(-c2ccccc2)cc1` + Cc1cccc(N(C)C(=O)C2C(O)CCN2c2nc(C)cc(C(F)(F)F)c2C#N)c1 the IC50 (second compound 0.0316 µM) was > 10 µM, the IC50 (second compound 0.1 µM) was > 10 µM and the IC50 (second compound 0.316 µM) was > 10 µM. The IC50 (second compound 1 µM) was > 10 µM, the IC50 (second compound 3.16 µM) was > 10 µM and the IC50 (second compound 10 µM) was > 10 µM. It also gave a viability, T/C [1] of 105%, a viability, T/C [2] of 105% and a viability, T/C (second compound 0.0316 µM, first compound 0.316 µM) of 99.4%. The viability, T/C (second compound 0.0316 µM, first compound 1 µM) was 100%, the viability, T/C (second compound 0.0316 µM, first compound 3.16 µM) was 101% and the viability, T/C (second compound 0.0316 µM, first compound 10 µM) was 72.7%. For the same molecule, the viability, T/C [3] was 107%, the viability, T/C [4] was 99.4% and the viability, T/C (second compound 0.1 µM, first compound 0.316 µM) was 93.9%. For the same molecule, the viability, T/C (second compound 0.1 µM, first compound 1 µM) was 103%, the viability, T/C (second compound 0.1 µM, first compound 3.16 µM) was 91% and the viability, T/C (second compound 0.1 µM, first compound 10 µM) was 98.1%. It also gave a viability, T/C [5] of 105%, a viability, T/C [6] of 91.9% and a viability, T/C (second compound 0.316 µM, first compound 0.316 µM) of 111%. The viability, T/C (second compound 0.316 µM, first compound 1 µM) was 103%, the viability, T/C (second compound 0.316 µM, first compound 3.16 µM) was 97.5% and the viability, T/C (second compound 0.316 µM, first compound 10 µM) was 92.5%. For the same molecule, the viability, T/C [7] was 93.7%, the viability, T/C [8] was 84.4% and the viability, T/C (second compound 1 µM, first compound 0.316 µM) was 94.9%. It also gave a viability, T/C (second compound 1 µM, first compound 1 µM) of 87.3%, a viability, T/C (second compound 1 µM, first compound 3.16 µM) of 111% and a viability, T/C (second compound 1 µM, first compound 10 µM) of 98.6%. For the same molecule, the viability, T/C [9] was 97.2%, the viability, T/C [10] was 106% and the viability, T/C (second compound 3.16 µM, first compound 0.316 µM) was 93%. The viability, T/C (second compound 3.16 µM, first compound 1 µM) was 80.6%, the viability, T/C (second compound 3.16 µM, first compound 3.16 µM) was 106% and the viability, T/C (second compound 3.16 µM, first compound 10 µM) was 91.7%. For the same molecule, the viability, T/C [11] was 96.8%, the viability, T/C [12] was 101% and the viability, T/C (second compound 10 µM, first compound 0.316 µM) was 108%. The viability, T/C (second compound 10 µM, first compound 1 µM) was 93%, the viability, T/C (second compound 10 µM, first compound 3.16 µM) was 89.5% and the viability, T/C (second compound 10 µM, first compound 10 µM) was 105%.
In the case of `Cn1ncnc1[C@H]1c2n[nH]c(=O)c3cc(F)cc(c23)N[C@@H]1c1ccc(F)cc1` + COC1C(OC(N)=O)C(O)C(Oc2ccc3c(O)c(NC(=O)c4ccc(O)c(CC=C(C)C)c4)c(=O)oc3c2C)OC1(C)C, the IC50 (second compound 0.0316 µM) is reported as > 0.1 µM, the IC50 (second compound 0.1 µM) is reported as > 0.1 µM and the IC50 (second compound 0.316 µM) is reported as > 0.1 µM. For the same molecule, the IC50 (second compound 1 µM) was > 0.1 µM, the IC50 (second compound 3.16 µM) was > 0.1 µM and the IC50 (second compound 10 µM) was > 0.1 µM. The viability, T/C (second compound 0.0316 µM, first compound 0.000316 µM) was 92.9%, the viability, T/C (second compound 0.0316 µM, first compound 0.001 µM) was 99.7% and the viability, T/C (second compound 0.0316 µM, first compound 0.00316 µM) was 108%. The viability, T/C (second compound 0.0316 µM, first compound 0.01 µM) was 97.1%, the viability, T/C [1] was 90.9% and the viability, T/C [2] was 82.8%. For the same molecule, the viability, T/C (second compound 0.1 µM, first compound 0.000316 µM) was 102%, the viability, T/C (second compound 0.1 µM, first compound 0.001 µM) was 96.8% and the viability, T/C (second compound 0.1 µM, first compound 0.00316 µM) was 91.8%. For the same molecule, the viability, T/C (second compound 0.1 µM, first compound 0.01 µM) was 91.9%, the viability, T/C [3] was 97.9% and the viability, T/C [4] was 91.5%. It also gave a viability, T/C (second compound 0.316 µM, first compound 0.000316 µM) of 102%, a viability, T/C (second compound 0.316 µM, first compound 0.001 µM) of 95.9% and a viability, T/C (second compound 0.316 µM, first compound 0.00316 µM) of 98.3%. It also gave a viability, T/C (second compound 0.316 µM, first compound 0.01 µM) of 91%, a viability, T/C [5] of 91.7% and a viability, T/C [6] of 92.8%. For the same molecule, the viability, T/C (second compound 1 µM, first compound 0.000316 µM) was 104%, the viability, T/C (second compound 1 µM, first compound 0.001 µM) was 97.1% and the viability, T/C (second compound 1 µM, first compound 0.00316 µM) was 94.9%. It also gave a viability, T/C (second compound 1 µM, first compound 0.01 µM) of 101%, a viability, T/C [7] of 104% and a viability, T/C [8] of 102%. It also gave a viability, T/C (second compound 3.16 µM, first compound 0.000316 µM) of 97%, a viability, T/C (second compound 3.16 µM, first compound 0.001 µM) of 104% and a viability, T/C (second compound 3.16 µM, first compound 0.00316 µM) of 94.8%. It also gave a viability, T/C (second compound 3.16 µM, first compound 0.01 µM) of 96.4%, a viability, T/C [9] of 105% and a viability, T/C [10] of 83.3%. For the same molecule, the viability, T/C (second compound 10 µM, first compound 0.000316 µM) was 94.7%, the viability, T/C (second compound 10 µM, first compound 0.001 µM) was 94.8% and the viability, T/C (second compound 10 µM, first compound 0.00316 µM) was 89.1%. The viability, T/C (second compound 10 µM, first compound 0.01 µM) was 110%, the viability, T/C [11] was 98.3% and the viability, T/C [12] was 102%.
